Experimental data reported in patent US7189851B2, “Condensed heterocyclic compounds as calcitonin agonists” (SmithKline Beecham Corporation, priority 2002, dated 2007).
pEC50: −log10 of the molar value.

Biological target: T1, human calcitonin-2 receptor (hCT2R) (Homo sapiens, UniProt P30988)
T1 construct: expressed in transfected cells; host or cells: Chinese hamster ovary (CHO) cells co-transfected with a 6CRE-luciferase reporter; receptor cDNA cloned from the MCF7 cell line
T1 sequence (P30988 25-474): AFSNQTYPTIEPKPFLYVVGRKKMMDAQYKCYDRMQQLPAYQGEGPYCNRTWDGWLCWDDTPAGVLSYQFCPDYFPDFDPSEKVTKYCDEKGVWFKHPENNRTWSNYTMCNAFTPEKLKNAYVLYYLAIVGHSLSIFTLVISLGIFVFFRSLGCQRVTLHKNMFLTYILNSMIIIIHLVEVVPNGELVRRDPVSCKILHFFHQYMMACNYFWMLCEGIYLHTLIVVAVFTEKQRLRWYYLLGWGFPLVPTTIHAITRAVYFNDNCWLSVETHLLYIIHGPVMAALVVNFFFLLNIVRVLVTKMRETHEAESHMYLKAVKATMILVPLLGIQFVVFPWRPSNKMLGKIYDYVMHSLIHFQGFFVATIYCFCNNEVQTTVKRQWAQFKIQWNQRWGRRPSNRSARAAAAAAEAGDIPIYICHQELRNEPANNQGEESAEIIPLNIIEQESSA
Test: HCT2R CRE-luc reporter assay
Format: cell-based
Conditions: agonist activity; CHO-6CRE-luciferase cells co-transfected with hCT2R
Procedure: The compounds of the present invention elicit important and measurable pharmacological responses. As is to be expected, the efficacy of any compound will vary depending upon the particular assay and the particular compound tested.
All recombinant cell line human calcitonin receptor assays were carried out with the human receptor corresponding to GeneBank Accession Number X69920, [See: Molecular Pharmacology 46 (2):246–255, 1994, Cloning and characterization of an abundant subtype of the human calcitonin receptor] cloned from the MCF7 cell line (American Type Tissue Collection, Manassas, Va., USA, Catalog # HTB-22). Human calcitonin receptor (hCT2R) was cloned as a HindIII fragment into plasmid BS SKII. Chinese hamster ovary cells were co-transfected with a 6CRE-luciferase reporter system and hCTR2. HEK cells were transfected with hCTR2.
CHO-6CRE-luciferase cells with or without co-expressed hCTR2 were grown in suspension in commercially available cell culture medium supplemented with 2 mM L-glutamine and 5% fetal bovine serum (FBS). Sixteen hours before each assay, cells were collected and resuspended at 1,000,000 cells/ml in media without FBS. Cells were cultured in spinner flasks at 37° C. in an atmosphere of 5% CO2. At the time of the assay, cells were pelleted by centrifugation and resuspended in media without FBS at a concentration of 250,000 cells/ml. The cell suspension was pipetted into black 96-well microtiter plates (25,000 cells/well) containing test compounds. After a four-hour incubation at 37° C., media was aspirated, followed by addition of 50 microliters of LucLite and PBS (1:1) containing 1 mM CaCl2 and 1 mM MgCl2. The plates were sealed and incubated for 20 minutes in the dark. Luminescent responses were measured using a Packard TopCount.
Structure activity studies were performed on CHO-6CRE-luciferase cells with or without co-transfected hCT2R. Forty-eight hours before each assay, cells were removed with trypsin and plated in 96-well microtiter plates at a concentration of 25–100,000 cells/well. Sixteen hours before each assay, FBS-containing media was removed and replaced with media without FBS. Compounds were added and incubated for four hours at 37° C. After incubation, media was aspirated and 50 microliters of LucLite in PBS (1:1) containing 1 mM CaCl2 and 1 mM MgCl2 were added to each well. Plates were sealed and incubated for 20 minutes in the dark before quantification of luminescence on a Packard TopCount.
Concentration-response curves were calculated and potencies were reported as the concentration of compounds producing half-maximal responses (EC50) or the negative log of the concentration of compounds producing half-maximal responses (pEC50).

Row | Compound | pEC50
1 | CCOC(=O)c1c(CCc2ccc(F)cc2)nc2c(c1-c1cc(C(=O)NC3CCc4ccccc43)co1)C(=O)N1CCC[C@@H]21 (stereo partly drawn) [Example 17, Ethyl(9aS)-4-{4-[(2,3-dihydro-1H-inden-1-ylamino)carbonyl]-2-furyl}-2-[2-(4-fluorophenyl)ethyl]-5-oxo-7,8,9,9a-tetrahydro-5H-pyrido[2,3-a]pyrrolizine-3-carboxylate] | ≥ 8.00
2 | O=C(N[C@@H]1CCc2ccccc21)c1ccc2c(c1)[nH]c(=O)c1c(Cc3ccc(F)cc3)nc3c(c12)C(=O)N1CCC[C@@H]31 [Example 58, (8bS)-N-[(1R)-2,3-dihydro-1H-inden-1-yl]-7-(4-fluorobenzyl)-6,13-dioxo-5,8b,9,10,11,13-hexahydro-6H-benzo[c]pyrroizino[2,1-f][2,7]naphthyridine-3-carboxamide] | 6.00 to 7.00
3 | CCOC(=O)c1c(Cc2ccc(F)cc2)nc2c(c1-c1ccc(C(=O)NCc3ccco3)nn1)C(=O)N1CCCC21 (stereo not drawn) [Example 39, Ethyl 2-(4-fluorobenzyl)-4-(6-{[(2-furylmethyl)amino]carbonyl}-3-pyridazinyl)-5-oxo-7,8,9,9a-tetrahydro-5H-pyrido[2,3-α]pyrrolizine-3-carboxylate] | 7.00 to 8.00
4 | CCOC(=O)c1c(CCc2ccc(C(F)(F)F)cc2)nc2c(c1-c1ccc(CC(=O)NCc3ccco3)cc1)C(=O)N1CCC[C@@H]21 [Example 37, Ethyl (9aS)-4-(4-{2-[(2-furylmethyl)amino]-2-oxoethyl}phenyl)-5-oxo-2-{2-[4-(trifluoromethyl)phenyl]ethyl}-7,8,9,9a-tetrahydro-5H-pyrido[2,3-α]pyrrolizine-3-carboxylate] | 6.00 to 7.00
5 | O=C(NCc1ccco1)c1ccc(-c2c(C(=O)c3ccco3)c(CCc3ccc(F)cc3)nc3c2C(=O)N2CCC[C@@H]32)cc1 [Example 31, 4-[(9aS)-2-[2-(4-fluorophenyl)ethyl]-3-(2-furoyl)-5-oxo-7,8,9,9a-tetrahydro-5H-pyrido[2,3-α]pyrrolizin-4-yl]-N-(2-furylmethyl)benzamide] | ≥ 8.00
6 | CCOC(=O)c1c(C(F)(F)F)nc2c(c1-c1ccc(C(=O)NCc3cccc(F)c3)cc1)c(=O)n1n2CCC1 [Example 10, Ethyl 4-(4-{[(3-fluorobenzyl)amino]carbonyl}phenyl)-5-oxo-2-(trifluoromethyl)-8,9-dihydro-5H,7H-pyrazolo[1′,2′:1,2]pyrazolo[3,4-b]pyridine-3-carboxylate] | ≤ 6.00
7 | CCOC(=O)c1c(CCc2ccc(C(F)(F)F)cc2)nc2c(c1-c1ccc(C(=O)NCCc3cnc[nH]3)cc1)C(=O)N1CCC[C@@H]21 [Example 42, Ethyl (9aS)-4-[4-({[2-(1H-imidazol-5-yl)ethyl]amino}carbonyl)phenyl]-5-oxo-2-{2-[4-(trifluoromethyl)phenyl]ethyl}-7,8,9,9a-tetrahydro-5H-pyrido[2,3-α]pyrrolizine-3-carboxylate] | 6.00 to 7.00
8 | CCOC(=O)c1c(Cc2ccsc2)nc2c(c1-c1ccc(C(=O)NCc3ccco3)cc1)C(=O)N1CCCC21 [Example 51, Ethyl (9aS)-4-(4-{[(2-furylmethyl)amino]carbonyl}phenyl)-5-oxo-2-(3-thienylmethyl)-7,8,9,9a-tetrahydro-5H-pyrido[2,3-α]pyrrolizine-3-carboxylate] | 6.00 to 7.00
9 | O=C(N[C@@H]1CCc2ccccc21)c1ccc(-c2cc(Cc3ccc(F)cc3)nc3c2C(=O)N2CCC[C@@H]32)cc1 [Example 20, 4-[(9aS)-2-(4-fluorobenzyl)-5-oxo-7,8,9,9a-tetrahydro-5H-pyrido[2,3-a]pyrrolizin-4-yl]-N-[(1R)-2,3-dihdro-1H-inden-1-yl]benzamide] | 7.00 to 8.00
10 | CCC(=O)Nc1c(CCc2ccc(C(F)(F)F)cc2)nc2c(c1-c1ccc(C(=O)NCc3ccco3)cc1)C(=O)N1CCC[C@@H]21 [Example 25, 4-((9aS)-3-[(Ethylcarbonyl)amino]-5-oxo-2-{2-[4-(trifluoromethyl)phenyl]ethyl}-7,8,9,9a-tetrahydro-5H-pyrido[2,3-α]pyrrolizin-4-yl)-N-(2-furylmethyl)benzamide] | 6.00 to 7.00
